{"source": "patent US20070099917A1", "about": "“Novel inhibitors and methods for their preparation” (THE WALTER AND ELIZA HALL INSTITUTE OF MEDICAL RESEARCH, priority 2005, published 2007)", "experiment": "Hydrolysis of FMS derivative in mouse plasma", "assay_type": "in vitro ADME", "settings": "100 μM in mouse plasma at 37° C., after 28 hours, RP-HPLC", "procedure": "Mouse plasma was incubated with 100 μM FMS-6-amino-4-(3-chlorophenylamino)quinazoline at 37° C. Samples were taken and analysed on RP-HPLC as described above in Example 1b) ii). The relative amounts of the two peaks were calculated. Chromatograms of samples taken at 0 (see FIG. 5), 5 (see FIG. 6) and 22 (see FIG. 7) hours show the relative change in the amount of the two compounds (i.e. FMS-6-amino-4-(3-chlorophenylamino)quinazoline vs 6-amino-4-(3-chlorophenylamino)quinazoline) in the plasma after incubation at 37° C."}
{"compound": "O=C(Nc1ccc2ncnc(Nc3cccc(Cl)c3)c2c1)OCC1c2ccccc2-c2ccc(S(=O)(=O)O)cc21", "note": "(stereo not shown) [FMS-6-amino-4-(3-chlorophenylamino)quinazoline]", "values": [{"measurement": "Hydrolysis to 6-amino-4-(3-chlorophenylamino)quinazoline in mouse plasma", "value": "almost completely hydrolysed"}]}
